From ChEMBL document CHEMBL1687911, “Design, synthesis, and biological evaluation of novel carbohydrate-based sulfamates as carbonic anhydrase inhibitors” (J Med Chem, 2011)
pKi: −log10 of the molar value.

Target: Carbonic anhydrase 9 (Homo sapiens, UniProt Q16790)
Experiment: Inhibition of human carbonic anhydrase 9 catalytic domain by CO2 hydration assay

Row | pKi | SMILES
1 | 7.12 | CC(=O)O[C@@H]1O[C@H](COS(N)(=O)=O)[C@H](OC(C)=O)[C@H](OC(C)=O)[C@H]1OC(C)=O
2 | 7.28 | NS(=O)(=O)OC[C@H]1OC(O)[C@@H](O)[C@@H](O)[C@@H]1O (some centres not stated)
3 | 7.14 | CC(=O)O[C@@H]1O[C@H](COS(N)(=O)=O)[C@@H](OC(C)=O)[C@H](OC(C)=O)[C@H]1OC(C)=O
4 | 6.20 | CC(=O)OC[C@H]1O[C@@H](OC(C)=O)[C@H](OC(C)=O)[C@@H](OC(C)=O)[C@@H]1O[C@H]1O[C@H](COS(N)(=O)=O)[C@@H](OC(C)=O)[C@H](OC(C)=O)[C@H]1OC(C)=O
5 | 5.38 | CC(=O)OC[C@H]1O[C@@H](S(N)(=O)=O)[C@H](OC(C)=O)[C@@H](OC(C)=O)[C@H]1OC(C)=O
6 | 8.05 | CO[C@H]1O[C@H](COS(N)(=O)=O)[C@@H](O)[C@H](O)[C@H]1O
7 | 7.11 | CCC(=O)O[C@@H]1O[C@H](COS(N)(=O)=O)[C@@H](OC(=O)CC)[C@H](OC(=O)CC)[C@H]1OC(=O)CC
8 | 6.30 | NS(=O)(=O)OC[C@H]1O[C@H](O[C@H]2[C@H](O)[C@@H](O)[C@H](O)O[C@@H]2CO)[C@H](O)[C@@H](O)[C@@H]1O
9 | 7.21 | NS(=O)(=O)OC[C@H]1OC(O)[C@H](O)[C@@H](O)[C@H]1O (some centres not stated)
10 | 8.11 | CC(=O)O[C@@H]1O[C@H](COS(N)(=O)=O)[C@@H](OC(C)=O)[C@H](OC(C)=O)[C@@H]1OC(C)=O
11 | 8.08 | CO[C@H]1O[C@H](COS(N)(=O)=O)[C@@H](OC(C)=O)[C@H](OC(C)=O)[C@H]1OC(C)=O
12 | 8.07 | NS(=O)(=O)OC[C@H]1OC(O)[C@H](O)[C@@H](O)[C@@H]1O (some centres not stated)
